Source: patent publication US12060379B2, “Plasmalogen derivatives” (Institute of Rheological Functions of Food, priority 2018, dated 2024)

Tests used:
[1] = system: ERK (ERK1/2) phosphorylation in mouse neuroblastoma derived NEURO2A cell; assay: ERK (ERK1/2) phosphorylation, Western Blotting, NEURO2A cells; format: cell-based; settings: 5 μg/ml, 30 minutes, compared with s-Pls (FIG. 1)
Protocol: Neuronal cell lines (mouse neuroblastoma derived NEURO2A cell and human neuroblastoma derived SH-SY5Y cell) were cultivated in DMEM medium containing 10% FBS (fetal bovine serum) for 24 hours. […] At this stage, the same amount of protein (50 μg of protein extracts) was subjected to an analysis to compare phosphorylation of ERK (ERK ½) (p-ERK).
Neuronal cell lines (mouse neuroblastoma derived NEURO2A cell) were cultivated in DMEM medium containing 10% FBS (fetal bovine serum) for 24 hours. […] At this stage, the same amount of protein (50 μg of protein extracts) was subjected to an analysis to compare phosphorylation of ERK (ERK %) (p-ERK).

[2] = system: ERK (ERK1/2) phosphorylation in human neuroblastoma derived SH-SY5Y cell; assay: ERK (ERK1/2) phosphorylation, Western Blotting, SH-SY5Y cells; format: cell-based; settings: 5 μg/ml, 30 minutes, compared with s-Pls (FIG. 1)
Protocol: By using a neuronal cell line, a study was performed with respect to enhanced phosphorylation activities of ERK (ERK1/2) with compounds according to the present invention.
Neuronal cell lines (mouse neuroblastoma derived NEURO2A cell and human neuroblastoma derived SH-SY5Y cell) were cultivated in DMEM medium containing 10% FBS (fetal bovine serum) for 24 hours. Subsequently, they were cultivated in DMEM medium containing 2% FBS for overnight (18 hours), which were then processed with 5 μg/ml of s-Pls (scallop-derived Pls), Compound REO-002 according to the present invention, and Compound REO-003 according to the present invention for 30 minutes respectively, and cells were subjected to Western Blotting assay. At this stage, the same amount of protein (50 μg of protein extracts) was subjected to an analysis to compare phosphorylation of ERK (ERK ½) (p-ERK).
Neuronal cell lines (human neuroblastoma derived SH-SY5Y cell) were cultivated in DMEM medium containing 10% FBS (fetal bovine serum) for 24 hours. Subsequently, they were cultivated in DMEM medium containing 2% FBS for overnight (18 hours), which were then processed with 1 μg/ml, 5 μg/ml of Compounds REO-004-007 according to the present invention for 30 minutes respectively, and cells were subjected to Western Blotting assay. […]

CC/C=C\C/C=C\C/C=C\C/C=C\C/C=C\C/C=C\CCC(=O)O[C@@H](COCCCCCOc1ccccc1)COP(=O)(O)OCCN [REO-003]
enhanced phosphorylation activities of ERK (ERK1/2) (p-ERK) [1]: exhibit enhanced phosphorylation activities of ERK (ERK½) equivalent to s-Pls | enhanced phosphorylation activities of ERK (ERK1/2) (p-ERK) [2]: exhibit enhanced phosphorylation activities of ERK (ERK½) equivalent to s-Pls
